# Experimental data as given in ChEMBL document CHEMBL1143808, “A generally applicable method for assessing the electrophilicity and reactivity of diverse nitrile-containing compounds” (Bioorg Med Chem Lett, 2007).
# Experiments:
# Type in all cases: ADME, Microsome
# Liver microsomes [1] = test: Irreversible covalent binding in human liver microsomes at 100 uM after 30 mins; conditions: 0.5 h
# Liver microsomes [2] = test: Irreversible covalent binding in human liver microsomes at 10 uM after 1 hr
# Liver microsomes [3] = test: Irreversible covalent binding in rat liver microsomes after 1 hr
smiles,measurement,setting,value
COCCN1CCC(Cc2ccc(C(=O)NCc3cnc(C#N)nc3NCC(C)(C)C)cc2)CC1,Activity,Liver microsomes [1],0.5%
same,Activity,Liver microsomes [2],70 pmol/mg
[3H]C([3H])([3H])S(=O)(=O)c1ccc(-c2ccc([C@H](N[C@@H](CC(C)C)C(=O)NCC#N)C(F)(F)F)cc2)cc1,Activity,Liver microsomes [1],0.06%
same,Activity,Liver microsomes [2],7 pmol/mg
N#CN1CCC(NS(=O)(=O)c2ccccc2)C1 (configuration not stated),Activity,Liver microsomes [3],550 pmol/mg
same,Activity,Liver microsomes [1],3.6%
same,Activity,Liver microsomes [2],460 pmol/mg
